# Test results reported in patent US8329149B2, “Topical lightening composition and uses thereof” (Avon Products, Inc., priority 2009, dated 2012).
# Test system: B16 mouse melanoma cells
# Assay: B16 inhibition assay (melanin synthesis, normalized to MTT cell viability)
# Assay type: cell-based
# Details: 7 days
# Experimental: The B16 assay uses a cell line derived from mice with inhibition of tyrosinase as the end point. For the B16 assay, the active oxobutanoic acid tyrosinase inhibitors as disclosed herein in Table 1 were tested in a monolayer cell culture of B16 mouse melanoma cells. These cells are known to constitutively produce melanin and are a commonly utilized and accepted model system for monitoring the inhibition of melanin synthesis.
# The B16 mouse melanoma cells were seeded (ATCC, cat. #: CRL-6475) into 96-well tissue culture-treated plates (BD Falcon) and treated with test actives diluted in DMEM without phenol red (Mediatech; cat. #: 17-205-CV) and examined for their ability to modulate pigment formation. Kojic acid was used as the positive control inhibitor. Cells were exposed to diluted test material or controls for 7 days. Following the treatment period, the level of pigment produced or melanin synthesized was quantified by reading the absorbance at 540 nm using a standard microplate reader (Tecan Group Ltd.).
# After quantifying the amount of melanin, cell viability was determined using the MTT conversion method. The MTT conversion method measures the reduction of the MTT dye from a yellow colored, water-soluble, tetrazolium salt to a bluish-purple colored insoluble formazan precipitate by NAD(P)H-dependent microsomal dehydrogenase enzymes, which only function in viable cells. The intensity of the blue color is indicative of cell viability. After quantifying the amount of melanin pigment produced, the cells were exposed to MTT dye solution (1 mg/ml) for two to three hours. Formazan material was solubilized with reagent alcohol (95% ethanol: 5% isopropanol) and shaken on an orbital shaker for 15-30 minutes. MTT dye uptake and conversion by viable cells were determined by measuring the extracted formazan at 570 nm using a microplate reader. Total pigmentation was calculated, normalized to cell viability values and expressed as percent activity relative to control. The compounds A-H of Table 1 in a weight percent ranging from about 0.0002% to about 0.002% inhibited tyrosinase by a percent ranging from about 29% to about 87%. […]
Structure (SMILES),B16 Results Percent inhibition of melanin (concentration 0.0001%) [%],B16 Results Percent inhibition of melanin (concentration 0.001%) [%]
"Cc1ccc(C(=O)CC(NCc2ccco2)C(=O)O)cc1 (stereo not drawn) [I, 2-(2-furanylmethylamino)-4-(4′-methylphenyl)-4-oxobutanoic acid]",−20,−71
"COc1ccc(C(=O)CC(NCc2cccnc2)C(=O)O)cc1 (stereo not drawn) [J, 2-(3-pyridylmethylamino)-4-(4′-methoxyphenyl)-4-oxobutanoic acid]",−27.84,−53.63
"Cc1ccc(C(=O)CC(NCc2ccccc2)C(=O)O)cc1 (stereo not drawn) [K, 2-(benzylamino)-4-(4′-methylphenyl)-4-oxobutanoic acid]",−46,−67
